{"source": "patent US10526327B2", "about": "“Histone demethylase inhibitors” (CELGENE QUANTICEL RESEARCH, INC., priority 2013, dated 2020)", "system": "KDM5A/B", "experiment": "In vitro cell-based assay: immuno-blot quantification of tri-methyl H3K4 in ZR-75-1 breast cancer cells", "details": "72 hours, tri-methyl H3K4 level relative to GAPDH, percent of DMSO, read-out: Cellular IC50", "from_the_text": "An assay to measure the degree of cellular inhibition of KDM5A and 5B was developed. This quantitative immuno-blotting assay measures the amount tri-methylated histone H3 at amino acid Lysine number 4, a specific substrate […] of the direct enzymatic activity of the histone demethylases KDM5A and KDM5B from extracts of the ZR-75-1 breast cancer cell line.\nThis assay is a fluorometric immunoassay for the quantification of tri-methyl H3K4 extracted from cells treated with test compound and is used as a measure of the cellular inhibition of KDM5A/B.\nZR-75-1 (PTEN null, ER+) breast cancer cells numbering 50,000 (ATCC) were seeded into each well of a 96-well tissue culture treated plate and then exposed to an 11 point dilution of test compound with final concentration ranges of test compound ranging from 1250 μM to 10 nM. Cells were left in the presence of test compound for 72 hours. Extracts were prepared containing all of the cellular histone material using detergent based lysis and sonication methods. These lysates were subsequently normalized for total protein content using a colorimetric bicinchonic acid assay (MicroBCA Pierce/Thermo Scientific). Normalized cell extracts were then subjected to typical immuno-blotting procedures using NuPage reagents (Life Technologies). Electrophoretically separated histones were then transferred and immobilized using polyvinylidene difluoride membrane (Immobilon-FL Millipore). The amount of tri-methylated lysine 4 of histone H3 was detected using an antibody specific to the tri-methylated state (Cell Signaling Technologies) and quantified on an infrared imager using a densitometry software package (Odyssey CLx, Image Studio, Li-Cor). This background subtracted densitometry value was reported as a ration of the GAPDH amount for that sample and then calculated as a percent of the DMSO treated sample. The software package XL-fit (IDBS) was then used to calculate a relative IC50 value for the dilution series of a given test compound according to the equation: fit=(D+((Vmax*(x^n))/((x^n)+(Km^n))))."}
{"compound": "Oc1nc(Oc2ccc(Cl)cc2)nc2cnccc12", "note": "[Example 49, 2-(4-chlorophenoxy)pyrido[3,4-d]pyrimidin-4-ol]", "values": [{"measurement": "IC50", "value": "> 10", "unit": "µM"}]}
{"compound": "Oc1nc(OCC2CCC2)nc2cnccc12", "note": "[Example 11, 2-(cyclobutylmethoxy)-3H-pyrido[3,4-d]pyrimidin-4-one]", "values": [{"measurement": "IC50", "value": "> 10", "unit": "µM"}]}
{"compound": "CC(C)(C)OC(=O)N1CCC(n2cc(Oc3nc(O)c4ccncc4n3)cn2)CC1", "note": "[Example 88, tert-butyl 4-[4-(4-hydroxypyrido[3,4-d]pyrimidin-2-yl)oxypyrazol-1-yl]piperidine-1-carboxylate]", "values": [{"measurement": "IC50", "value": "1 to 10", "unit": "µM"}]}
{"compound": "CCOc1c(F)cc(Oc2nc(O)c3ccncc3n2)cc1F", "note": "[Example 45, 2-(4-ethoxy-3,5-difluorophenoxy)pyrido[3,4-d]pyrimidin-4-ol]", "values": [{"measurement": "IC50", "value": "> 10", "unit": "µM"}]}
{"compound": "CCc1cccc(Oc2nc(O)c3ccncc3n2)c1", "note": "[Example 57, 2-(3-ethylphenoxy)pyrido[3,4-d]pyrimidin-4-ol]", "values": [{"measurement": "IC50", "value": "> 10", "unit": "µM"}]}
{"compound": "COc1ccc(Oc2nc(O)c3ccncc3n2)cc1F", "note": "[Example 53, 2-(3-fluoro-4-methoxyphenoxy)pyrido[3,4-d]pyrimidin-4-ol]", "values": [{"measurement": "IC50", "value": "1 to 10", "unit": "µM"}]}
{"compound": "Cn1cnc(-c2nccc3c(O)nc(OCCO)nc23)c1", "note": "[Example 75, 2-(2-hydroxyethoxy)-8-(1-methylimidazol-4-yl)pyrido[3,4-d]pyrimidin-4-ol]", "values": [{"measurement": "IC50", "value": "> 10", "unit": "µM"}]}
{"compound": "COc1cccc(Oc2nc(O)c3ccncc3n2)c1", "note": "[Example 44, 2-(3-methoxyphenoxy)pyrido[3,4-d]pyrimidin-4-ol]", "values": [{"measurement": "IC50", "value": "> 10", "unit": "µM"}]}
{"compound": "Cn1cnc(-c2nccc3c(O)nc(OCCCC(F)(F)F)nc23)c1", "note": "[Example 74, 8-(1-methylimidazol-4-yl)-2-(4,4,4-trifluorobutoxy)pyrido[3,4-d]pyrimidin-4-ol]", "values": [{"measurement": "IC50", "value": "0.1 to 1", "unit": "µM"}]}
{"compound": "COc1ccc(Oc2nc(O)c3ccncc3n2)cc1", "note": "[Example 48, 2-(4-methoxyphenoxy)pyrido[3,4-d]pyrimidin-4-ol]", "values": [{"measurement": "IC50", "value": "> 10", "unit": "µM"}]}
{"compound": "Oc1nc(Oc2ccc(F)cc2)nc2cnccc12", "note": "[Example 47, 2-(4-fluorophenoxy)pyrido[3,4-d]pyrimidin-4-ol]", "values": [{"measurement": "IC50", "value": "> 10", "unit": "µM"}]}
{"compound": "Cn1cnc(-c2nccc3c(O)nc(OCc4ccc(F)cc4)nc23)c1", "note": "[Example 71, 2-[(4-fluorobenzyl)oxy]-8-(1-methyl-1H-imidazol-4-yl)pyrido[3,4-d]pyrimidin-4-ol]", "values": [{"measurement": "IC50", "value": "1 to 10", "unit": "µM"}]}
{"compound": "Oc1nc(Oc2cccc(F)c2)nc2cnccc12", "note": "[Example 40, 2-(3-fluorophenoxy)pyrido[3,4-d]pyrimidin-4-ol]", "values": [{"measurement": "IC50", "value": "> 10", "unit": "µM"}]}
{"compound": "Oc1nc(OCC2CC2)nc2cnccc12", "note": "[Example 5, 2-(cyclopropylmethoxy)-3H-pyrido[3,4-d]pyrimidin-4-one]", "values": [{"measurement": "IC50", "value": "> 10", "unit": "µM"}]}
{"compound": "Oc1nc(Oc2cnn(C3CCNCC3)c2)nc2cnccc12", "note": "[Example 89, 2-(1-piperidin-4-ylpyrazol-4-yl)oxypyrido[3,4-d]pyrimidin-4-ol]", "values": [{"measurement": "IC50", "value": "1 to 10", "unit": "µM"}]}
{"compound": "CCCn1cc(Oc2nc(O)c3ccncc3n2)cn1", "note": "[Example 54, 2-(1-propylpyrazol-4-yl)oxypyrido[3,4-d]pyrimidin-4-ol]", "values": [{"measurement": "IC50", "value": "1 to 10", "unit": "µM"}]}
{"compound": "CCOc1nc(O)c2ccnc(-c3cn(C)cn3)c2n1", "note": "[Example 69, 2-ethoxy-8-(1-methyl-1H-imidazol-4-yl)pyrido[3,4-d]pyrimidin-4-ol]", "values": [{"measurement": "IC50", "value": "> 10", "unit": "µM"}]}
{"compound": "Oc1nc(OCc2ccccc2)nc2cnccc12", "note": "[Example 4, 2-phenylmethoxypyrido[3,4-d]pyrimidin-4-ol]", "values": [{"measurement": "IC50", "value": "1 to 10", "unit": "µM"}]}
{"compound": "Oc1nc(Oc2cccc(C(F)(F)F)c2)nc2cnccc12", "note": "[Example 52, 2-[3-(trifluoromethyl)phenoxy]pyrido[3,4-d]pyrimidin-4-ol]", "values": [{"measurement": "IC50", "value": "1 to 10", "unit": "µM"}]}
{"compound": "Cn1cnc(-c2nccc3c(O)nc(OCC4CC4)nc23)c1", "note": "[Example 72, 2-(cyclopropylmethoxy)-8-(1-methylimidazol-4-yl)pyrido[3,4-d]pyrimidin-4-ol]", "values": [{"measurement": "IC50", "value": "1 to 10", "unit": "µM"}]}
{"compound": "Oc1nc(OCC(F)(F)F)nc2cnccc12", "note": "[Example 12, 2-(2,2,2-trifluoroethoxy)pyrido[3,4-d]pyrimidin-4-ol]", "values": [{"measurement": "IC50", "value": "> 10", "unit": "µM"}]}
{"compound": "Oc1nc(Oc2cnn(Cc3ccc(F)cc3)c2)nc2cnccc12", "note": "[Example 86, 2-[1-(4-fluorobenzyl)pyrazol-4-yl]oxypyrido[3,4-d]pyrimidin-4-ol]", "values": [{"measurement": "IC50", "value": "1 to 10", "unit": "µM"}]}
{"compound": "Oc1nc(Oc2cnn(Cc3ccccc3)c2)nc2cnccc12", "note": "[Example 66, 2-[(1-benzyl-1H-pyrazol-4-yl)oxy]pyrido[3,4-d]pyrimidin-4-ol]", "values": [{"measurement": "IC50", "value": "1 to 10", "unit": "µM"}]}
{"compound": "CC(=O)Nc1ccc(Oc2nc(O)c3ccncc3n2)cc1", "note": "[Example 35, N-[4-(4-hydroxypyrido[3,4-d]pyrimidin-2-yl)oxyphenyl]acetamide]", "values": [{"measurement": "IC50", "value": "1 to 10", "unit": "µM"}]}
{"compound": "Oc1nc(Oc2cccc(Cl)c2)nc2cnccc12", "note": "[Example 41, 2-(3-chlorophenoxy)pyrido[3,4-d]pyrimidin-4-ol]", "values": [{"measurement": "IC50", "value": "> 10", "unit": "µM"}]}
{"compound": "Oc1nc(Oc2ccc(F)c(F)c2)nc2cnccc12", "note": "[Example 37, 2-(3,4-difluorophenoxy)pyrido[3,4-d]pyrimidin-4-ol]", "values": [{"measurement": "IC50", "value": "> 10", "unit": "µM"}]}
{"compound": "CC(C)CCn1cc(Oc2nc(O)c3ccncc3n2)cn1", "note": "[Example 55, 2-{[1-(3-methylbutyl)pyrazol-4-yl]oxy}pyrido[3,4-d]pyrimidin-4-ol]", "values": [{"measurement": "IC50", "value": "1 to 10", "unit": "µM"}]}
{"compound": "Cn1cnc(-c2nccc3c(O)nc(OCC(F)(F)F)nc23)c1", "note": "[Example 70, 8-(1-methyl-1H-imidazol-4-yl)-2-(2,2,2-trifluoroethoxy)pyrido[3,4-d]pyrimidin-4-ol]", "values": [{"measurement": "IC50", "value": "1 to 10", "unit": "µM"}]}
{"compound": "CN(C)c1cccc(Oc2nc(O)c3ccncc3n2)c1", "note": "[Example 50, 2-[3-(dimethylamino)phenoxy]pyrido[3,4-d]pyrimidin-4-ol]", "values": [{"measurement": "IC50", "value": "> 10", "unit": "µM"}]}
{"compound": "CCCOc1nc(O)c2ccncc2n1", "note": "[Example 7, 2-propoxy-3H-pyrido[3,4-d]pyrimidin-4-one]", "values": [{"measurement": "IC50", "value": "> 10", "unit": "µM"}]}
{"compound": "Oc1nc(Oc2cnn(C3CCCC3)c2)nc2cnccc12", "note": "[Example 56, 2-[(1-cyclopentylpyrazol-4-yl)oxy]pyrido[3,4-d]pyrimidin-4-ol]", "values": [{"measurement": "IC50", "value": "1 to 10", "unit": "µM"}]}
{"compound": "Oc1nc(Oc2cnn(Cc3ccccc3F)c2)nc2cnccc12", "note": "[Example 87, 2-[1-(2-fluorobenzyl)pyrazol-4-yl]oxypyrido[3,4-d]pyrimidin-4-ol]", "values": [{"measurement": "IC50", "value": "0.1 to 1", "unit": "µM"}]}
{"compound": "Oc1nc(OCCOc2ccccc2)nc2cnccc12", "note": "[Example 10, 2-(2-phenoxyethoxy)-3H-pyrido[3,4-d]pyrimidin-4-one]", "values": [{"measurement": "IC50", "value": "> 10", "unit": "µM"}]}
